Activity calls are given as the source filed them.
Tests used:
Cytochrome P450 3A4 = Cytochrome P450 3A4 (Homo sapiens, UniProt P08684);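 further: CYP3A4 tested as one member of a cytochrome P450 panel screen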
BJ [1] = assay: cells; format: functional, cell-based; settings: Homo sapiens
[2] = cytotoxicity in HEK-293T cells, dose response, cytotoxicity control for TCR NF-kB inhibitor project, luminescence, T-cell screen hits (AID 489026); format: functional, cell-based;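 further: cells exposed to compound about 14 hours before the viability readout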
BJ [3] = assay: cytotoxicity toward BJ-TERT fibroblasts, dose response, cell-based, RAS-independent, luminescence (AID 1933); format: functional; settings: Homo sapiens
[4] = cytotoxicity toward DRD oncogenic fibroblasts, dose response, cell-based, non-viral oncogenic, luminescence (AID 1934); format: functional; settings: Homo sapiens
BJ [5] = assay: cytotoxicity toward BJ-TERT-LT-ST fibroblasts, dose response, cell-based, RAS-independent, luminescence (AID 1935); format: functional; settings: Homo sapiens;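 further: BJ fibroblasts immortalized with TERT plus LT and ST oncogenes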
[6] = target: T1, Carboxy-terminal domain RNA polymerase II polypeptide A small phosphatase 1 (Homo sapiens, UniProt Q9GZU7); assay: inhibitors of CTDSP1, concentration-response testing, biochemical assay, absorbance-based, actives from ultra-high-throughput screening (AID 540297); format: functional
T1 sequence (Q9GZU7 whole entry): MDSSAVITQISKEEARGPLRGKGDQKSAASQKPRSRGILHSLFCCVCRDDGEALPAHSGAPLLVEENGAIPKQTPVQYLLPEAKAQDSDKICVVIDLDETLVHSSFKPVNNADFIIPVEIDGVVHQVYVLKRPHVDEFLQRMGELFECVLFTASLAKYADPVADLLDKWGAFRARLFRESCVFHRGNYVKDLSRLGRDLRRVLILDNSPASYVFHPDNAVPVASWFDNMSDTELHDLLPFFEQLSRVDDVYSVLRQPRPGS

Cytochrome P450 2C19 = Cytochrome P450 2C19 (Homo sapiens, UniProt P33261); assay: Cytochrome panel assay with activity outcomes. Panel member name: p450-cyp2c19 Compounds with AC50 equal or less than 10 uM are considered active; format: functional; settings: read-out: AC50
[7] = inhibitors of firefly luciferase expression or activity, dose response, H4 neuroglioma cells, luminescence (AID 1990); format: functional, cell-based
cells [8] = format: functional, cell-based
[9] = Shn3 3'UTR reporter inhibitors, dose response, cell-based, Clone20 osteoblasts, firefly luciferase, cherry-picked (AID 624132); format: functional;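 further: firefly luciferase luminescence from reporter carrying the Shn3 3'UTR in osteoblasts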
cells [10] = format: functional, cell-based; remark: listed apart in the source
[11] = NIH-3T3 fibroblast cytotoxicity, dose response, cytotoxicity control, cell-based, fluorescence, Alamar Blue, secondary assay (AID 2327); format: functional;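 further: NIH-3T3 mouse fibroblasts cultured with fluconazole at 8 µg/mL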
[12] = target: T2, Type-1 angiotensin II receptor (Homo sapiens, UniProt P30556); assay: AT1 receptor antagonists, dose response, selectivity assay for APJ receptor antagonist project, cell-based, uHTS hits (AID 463214); format: functional;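 further: antagonist potency against angiotensin II stimulated AT1 response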
T2 sequence (P30556 whole entry): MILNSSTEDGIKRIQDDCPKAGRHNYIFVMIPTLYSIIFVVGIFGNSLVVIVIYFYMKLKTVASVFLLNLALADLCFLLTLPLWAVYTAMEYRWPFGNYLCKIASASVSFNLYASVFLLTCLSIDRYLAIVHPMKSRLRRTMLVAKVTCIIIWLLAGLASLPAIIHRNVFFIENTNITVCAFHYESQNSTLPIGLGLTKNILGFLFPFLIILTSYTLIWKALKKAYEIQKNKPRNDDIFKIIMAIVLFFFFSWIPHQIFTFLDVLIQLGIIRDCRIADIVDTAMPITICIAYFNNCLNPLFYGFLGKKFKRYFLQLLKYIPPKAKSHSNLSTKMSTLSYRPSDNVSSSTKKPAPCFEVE

Streptococcus = assay: Group A Streptococcus viability loss, dose response, counter-screen for streptokinase expression inhibitor project, luminescence, BacTiterGlo (AID 1915); format: functional, organism-based;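 further: potency for reduction of bacterial viability or growth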
[13] = inhibitors of intracellular T. cruzi replication, confirmation, NIH3T3 host cells, beta-gal luminescence (AID 2044); format: functional, cell-based;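 further: intracellular parasites grown in NIH/3T3 mouse fibroblasts as host cells; luminescent beta-galactosidase reporter signal from transgenic T. cruzi replicating inside host cells; inhibitors lower the luminescence signal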
[14] = cytotoxicity toward NIH3T3 fibroblasts, dose response, counter-screen, cell-based, ATP luminescence, mouse fibroblasts (AID 2010); format: functional;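 further: cells exposed to compound for about 90 hours before reading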
[15] = C. albicans growth with fluconazole, confirmation, fluorescence, retest (AID 2467); format: functional, cell-based
[16] = control 3'UTR Renilla luciferase suppression, dose response, counter-screen for Shn3 inhibitor project, cell-based, Clone20-Shn3RL, cherry-picked (AID 624133); format: functional
Cytochrome P450 2C9 = Cytochrome P450 2C9 (Homo sapiens, UniProt P11712)
[17] = Luminescence Cell-Based Dose Response HTS to Identify Inhibitors of 5'UTR Stem-Loop Driven Prion Protein mRNA Translation in H4 Neuroglioblastoma Cells. [Related pubchem assays: 1827 (Project Summary), 1813 (Primary HTS)]; format: functional
Cytochrome P450 1A2 = target: T3, Cytochrome P450 1A2 (Homo sapiens, UniProt P05177);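 further: PubChem cytochrome P450 panel assay, CYP1A2 panel member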
T3 sequence (P05177 whole entry): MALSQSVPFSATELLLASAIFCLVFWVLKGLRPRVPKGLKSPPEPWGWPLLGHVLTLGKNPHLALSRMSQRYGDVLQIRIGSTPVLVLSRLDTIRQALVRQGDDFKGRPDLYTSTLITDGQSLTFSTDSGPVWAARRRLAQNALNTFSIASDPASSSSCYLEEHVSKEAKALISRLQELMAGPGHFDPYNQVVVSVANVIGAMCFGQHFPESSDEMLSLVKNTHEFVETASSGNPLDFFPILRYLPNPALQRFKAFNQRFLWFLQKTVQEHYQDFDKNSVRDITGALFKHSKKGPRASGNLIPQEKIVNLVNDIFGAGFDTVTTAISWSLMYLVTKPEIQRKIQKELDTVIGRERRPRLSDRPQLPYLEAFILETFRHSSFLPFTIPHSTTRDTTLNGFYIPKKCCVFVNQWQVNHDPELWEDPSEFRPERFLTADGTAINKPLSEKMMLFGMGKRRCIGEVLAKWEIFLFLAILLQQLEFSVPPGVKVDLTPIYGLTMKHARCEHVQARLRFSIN

Vero [18] = assay: cells; format: functional; settings: Chlorocebus sabaeus
[19] = HepG2 cell cytotoxicity, dose response, cytotoxicity control for Shn3 inhibitor project, CellTiter-Glo, cherry-picked (AID 624134); format: functional, cell-based
Vero [20] = assay: cells; format: functional, cell-based; settings: Chlorocebus sabaeus
[21] = inhibitors of SNCA 5'UTR-driven reporter translation, confirmation, H4 neuroglioma cells, luminescence (AID 1988); format: functional, cell-based
Beta-galactosidase = Beta-galactosidase (Escherichia coli, UniProt Q8VNN2); assay: PubChem AID 485352; format: functional
[22] = tested on: Streptococcus sp. 'group A'; assay: growth inhibition of control SK(-) GAS strain, dose response, counter-screen for streptokinase expression inhibitor project, luminescence, kanamycin, BacTiterGlo, confirmation (AID 1900); format: functional, organism-based
[23] = target: T4, High affinity choline transporter 1 (Homo sapiens, UniProt Q9GZV3); assay: CHT inhibitors, dose response, cell-based, 5-point CRC, membrane potential dye (AID 504840); format: functional
T4 sequence (Q9GZV3 whole entry): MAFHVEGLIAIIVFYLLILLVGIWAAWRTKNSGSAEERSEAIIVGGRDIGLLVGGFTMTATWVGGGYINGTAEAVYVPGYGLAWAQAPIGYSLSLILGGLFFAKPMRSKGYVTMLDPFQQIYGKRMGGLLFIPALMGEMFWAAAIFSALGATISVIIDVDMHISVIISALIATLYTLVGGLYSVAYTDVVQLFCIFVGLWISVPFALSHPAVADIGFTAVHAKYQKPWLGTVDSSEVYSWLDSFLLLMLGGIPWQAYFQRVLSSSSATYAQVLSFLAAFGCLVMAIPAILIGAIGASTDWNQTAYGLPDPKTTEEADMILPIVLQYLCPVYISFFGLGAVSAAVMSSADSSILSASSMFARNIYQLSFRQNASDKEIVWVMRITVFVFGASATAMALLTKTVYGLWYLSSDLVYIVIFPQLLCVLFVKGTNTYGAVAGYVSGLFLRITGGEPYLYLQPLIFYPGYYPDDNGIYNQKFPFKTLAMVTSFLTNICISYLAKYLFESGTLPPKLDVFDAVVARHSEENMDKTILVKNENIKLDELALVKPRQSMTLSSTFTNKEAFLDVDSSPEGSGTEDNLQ

[24] = Counterscreen for inhibitors of Trypanosoma brucei methionyl tRNA synthetase (MetRS): Luminescence-based cell-based high throughput dose response assay to identify compounds that are cytotoxic to Jurkat human T lymphocyte cells.; format: functional
[25] = target: T5, Methionyl-tRNA synthetase, putative (Trypanosoma brucei brucei, UniProt Q38C91); format: functional, Trypanosoma brucei brucei strain 927/4 GUTat10.1
T5 sequence (Q38C91 whole entry): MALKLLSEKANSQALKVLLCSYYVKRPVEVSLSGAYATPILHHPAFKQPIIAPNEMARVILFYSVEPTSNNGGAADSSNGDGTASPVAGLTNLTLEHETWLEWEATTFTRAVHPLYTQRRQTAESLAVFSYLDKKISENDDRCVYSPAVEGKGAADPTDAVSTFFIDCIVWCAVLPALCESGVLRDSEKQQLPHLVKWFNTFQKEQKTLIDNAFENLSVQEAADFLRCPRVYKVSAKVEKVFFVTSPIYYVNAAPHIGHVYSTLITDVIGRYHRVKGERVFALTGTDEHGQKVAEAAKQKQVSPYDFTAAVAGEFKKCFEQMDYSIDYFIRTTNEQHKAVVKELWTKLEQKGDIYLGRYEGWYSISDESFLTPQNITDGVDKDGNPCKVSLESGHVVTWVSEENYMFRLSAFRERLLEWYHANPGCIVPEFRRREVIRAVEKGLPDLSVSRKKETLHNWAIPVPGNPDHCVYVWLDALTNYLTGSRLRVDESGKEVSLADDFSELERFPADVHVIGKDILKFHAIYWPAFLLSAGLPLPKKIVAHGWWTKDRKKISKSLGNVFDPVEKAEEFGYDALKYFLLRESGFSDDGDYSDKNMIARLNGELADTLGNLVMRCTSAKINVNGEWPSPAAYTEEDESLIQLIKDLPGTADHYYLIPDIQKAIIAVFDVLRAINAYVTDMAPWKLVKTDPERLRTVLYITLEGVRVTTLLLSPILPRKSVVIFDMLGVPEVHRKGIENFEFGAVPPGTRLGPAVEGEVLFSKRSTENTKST

[26] = target: T5, Methionyl-tRNA synthetase, putative; format: functional, Trypanosoma brucei brucei strain 927/4 GUTat10.1; remark: listed apart in the source
Melanocortin receptor 4 = Melanocortin receptor 4 (Homo sapiens, UniProt P32245); format: functional, cell-based;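 further: Cell-based assay with luminescence read-out, confirmatory dose-response testing for agonist activity of biased ligands at MC4R; human U2OS cells with tagged receptor and beta-arrestin; potency of agonists that increase receptor coupling to beta-arrestin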
[27] = target: NAD-dependent protein deacylase sirtuin-5, mitochondrial (Homo sapiens, UniProt Q9NXA8); assay: SIRT5 desuccinylase inhibitors, dose response, biochemical, fluorescence imaging, cherry-pick, set 5 (AID 720591);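 further: desuccinylation of succinyl peptide AMC substrate read as fluorescence after trypsin release; potency of inhibitors that lower fluorescence and may act on trypsin instead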
NAD-dependent protein deacylase sirtuin-5, mitochondrial, sequence (Q9NXA8 whole entry): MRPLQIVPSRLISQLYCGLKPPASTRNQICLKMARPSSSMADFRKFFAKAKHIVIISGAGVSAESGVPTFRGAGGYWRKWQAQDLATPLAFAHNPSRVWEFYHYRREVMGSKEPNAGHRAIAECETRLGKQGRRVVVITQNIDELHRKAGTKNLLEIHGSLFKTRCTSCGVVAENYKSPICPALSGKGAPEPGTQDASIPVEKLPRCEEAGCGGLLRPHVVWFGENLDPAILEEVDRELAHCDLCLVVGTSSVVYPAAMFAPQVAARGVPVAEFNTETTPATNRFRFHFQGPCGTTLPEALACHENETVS

Cytochrome P450 3A4, sequence (P08684 whole entry): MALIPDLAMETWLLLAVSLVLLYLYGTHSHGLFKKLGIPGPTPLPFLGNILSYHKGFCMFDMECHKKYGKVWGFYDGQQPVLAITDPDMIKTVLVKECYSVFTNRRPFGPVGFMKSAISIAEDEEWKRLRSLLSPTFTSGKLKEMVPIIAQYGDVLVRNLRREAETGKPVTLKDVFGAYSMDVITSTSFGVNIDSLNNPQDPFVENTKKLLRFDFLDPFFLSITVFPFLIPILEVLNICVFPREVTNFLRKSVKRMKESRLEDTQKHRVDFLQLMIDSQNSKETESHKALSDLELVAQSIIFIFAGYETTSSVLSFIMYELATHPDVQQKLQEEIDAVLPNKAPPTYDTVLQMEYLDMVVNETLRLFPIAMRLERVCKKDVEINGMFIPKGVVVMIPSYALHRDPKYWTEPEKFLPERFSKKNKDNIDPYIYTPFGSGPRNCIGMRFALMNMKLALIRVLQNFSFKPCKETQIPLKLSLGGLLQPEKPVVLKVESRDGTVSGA
Melanocortin receptor 4, sequence (P32245 whole entry): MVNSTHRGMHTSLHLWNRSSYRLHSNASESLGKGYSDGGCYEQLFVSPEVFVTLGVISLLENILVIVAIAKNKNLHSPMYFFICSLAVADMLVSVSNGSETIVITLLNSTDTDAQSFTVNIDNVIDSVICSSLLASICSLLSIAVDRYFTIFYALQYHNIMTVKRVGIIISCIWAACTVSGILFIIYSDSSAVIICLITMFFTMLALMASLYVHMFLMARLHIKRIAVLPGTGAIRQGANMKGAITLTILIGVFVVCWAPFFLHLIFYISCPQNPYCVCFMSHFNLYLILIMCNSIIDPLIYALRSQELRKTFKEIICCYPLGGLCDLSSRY
Beta-galactosidase, sequence (Q8VNN2 whole entry): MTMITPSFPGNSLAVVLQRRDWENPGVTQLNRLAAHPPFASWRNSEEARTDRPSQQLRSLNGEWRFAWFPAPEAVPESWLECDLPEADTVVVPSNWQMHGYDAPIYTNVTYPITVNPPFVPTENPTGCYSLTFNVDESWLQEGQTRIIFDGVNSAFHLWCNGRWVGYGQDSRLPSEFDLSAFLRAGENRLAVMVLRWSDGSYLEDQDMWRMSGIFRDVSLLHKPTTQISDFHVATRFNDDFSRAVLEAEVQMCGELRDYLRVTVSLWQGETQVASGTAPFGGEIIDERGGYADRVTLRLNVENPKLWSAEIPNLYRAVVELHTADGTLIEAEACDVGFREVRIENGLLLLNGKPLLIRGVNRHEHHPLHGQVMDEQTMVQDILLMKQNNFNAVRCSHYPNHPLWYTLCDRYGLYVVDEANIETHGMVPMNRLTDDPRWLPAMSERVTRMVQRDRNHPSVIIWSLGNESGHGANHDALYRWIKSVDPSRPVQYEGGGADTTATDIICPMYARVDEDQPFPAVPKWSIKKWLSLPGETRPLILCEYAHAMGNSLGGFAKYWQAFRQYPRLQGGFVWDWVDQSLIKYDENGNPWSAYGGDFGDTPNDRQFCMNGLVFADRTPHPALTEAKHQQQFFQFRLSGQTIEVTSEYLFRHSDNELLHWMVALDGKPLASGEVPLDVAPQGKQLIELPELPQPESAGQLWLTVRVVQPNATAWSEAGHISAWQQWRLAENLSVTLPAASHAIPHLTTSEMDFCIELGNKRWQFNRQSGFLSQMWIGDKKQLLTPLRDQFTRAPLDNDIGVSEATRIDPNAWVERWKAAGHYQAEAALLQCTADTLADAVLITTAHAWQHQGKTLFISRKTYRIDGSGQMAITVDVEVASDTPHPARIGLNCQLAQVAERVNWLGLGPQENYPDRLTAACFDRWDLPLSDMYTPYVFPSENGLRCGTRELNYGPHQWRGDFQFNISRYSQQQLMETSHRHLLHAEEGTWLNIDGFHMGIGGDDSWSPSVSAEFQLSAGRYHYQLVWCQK
Cytochrome P450 2C9, sequence (P11712 whole entry): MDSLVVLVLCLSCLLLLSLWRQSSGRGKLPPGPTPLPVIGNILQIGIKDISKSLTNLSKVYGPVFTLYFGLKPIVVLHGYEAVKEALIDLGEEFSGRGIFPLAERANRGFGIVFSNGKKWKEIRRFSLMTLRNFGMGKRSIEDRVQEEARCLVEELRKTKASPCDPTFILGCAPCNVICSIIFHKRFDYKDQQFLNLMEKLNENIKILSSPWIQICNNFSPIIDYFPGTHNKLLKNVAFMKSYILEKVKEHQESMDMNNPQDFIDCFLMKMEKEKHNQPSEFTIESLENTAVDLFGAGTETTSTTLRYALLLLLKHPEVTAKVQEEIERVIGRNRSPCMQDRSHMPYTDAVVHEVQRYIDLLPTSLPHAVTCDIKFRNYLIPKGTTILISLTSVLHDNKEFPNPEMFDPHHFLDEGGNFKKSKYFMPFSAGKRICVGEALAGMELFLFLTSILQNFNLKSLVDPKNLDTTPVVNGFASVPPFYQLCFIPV
Cytochrome P450 2C19, sequence (P33261 whole entry): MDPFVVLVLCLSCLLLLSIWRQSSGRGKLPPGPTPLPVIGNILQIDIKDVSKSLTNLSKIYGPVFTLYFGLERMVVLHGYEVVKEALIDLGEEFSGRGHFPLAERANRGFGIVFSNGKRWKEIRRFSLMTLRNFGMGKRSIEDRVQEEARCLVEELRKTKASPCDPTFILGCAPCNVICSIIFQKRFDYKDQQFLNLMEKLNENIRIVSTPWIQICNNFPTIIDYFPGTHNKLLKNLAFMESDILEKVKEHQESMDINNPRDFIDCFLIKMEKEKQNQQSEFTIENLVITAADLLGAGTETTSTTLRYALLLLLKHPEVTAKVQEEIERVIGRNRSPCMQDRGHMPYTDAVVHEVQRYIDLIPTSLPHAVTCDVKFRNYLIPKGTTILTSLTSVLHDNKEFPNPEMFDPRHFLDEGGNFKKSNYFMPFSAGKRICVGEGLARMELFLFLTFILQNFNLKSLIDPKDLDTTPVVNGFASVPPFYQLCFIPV

O=C(c1csnn1)N1CCC2(CC1)CN(c1ccccn1)C2
AC50 (Cytochrome P450 3A4): inconclusive

CCOc1ccccc1C1CC(=O)Nc2cc(C)c(C)cc21 (configuration not stated)
EC50 (BJ [1]): 53.3 µM (active)
IC50 [2]: > 80 µM (inactive)
EC50 (BJ [3]): 14 µM (active)
EC50 [4]: 18.1 µM (active)
EC50 (BJ [5]): 23.5 µM (active)

C=CCn1c(COc2ccc(F)cc2)nnc1SCC(=O)NC(=O)NCc1ccco1
IC50 [6]: 15.9 µM (active)

Cc1nc(-n2nc3c(c2O)CCCC3)[nH]c(=O)c1Cc1ccccc1
AC50 (Cytochrome P450 2C19): 25.1 µM (inconclusive)
AC50 (Cytochrome P450 3A4): inconclusive
EC50 [7]: 8.07 µM (active)
EC50 (cells [8]): 16.8 µM (active)
AC50 [9]: 4.44 µM (active)
EC50 (cells [10]): > 350 µM (not active)
EC50 [11]: > 150 µM (inconclusive)
IC50 [12]: 14.2 µM (active)
EC50 (Streptococcus): 4.47 µM (active)
EC50 [13]: 1.17 µM (active)
EC50 [14]: 1.06 µM (active)
EC50 [15]: 0.554 µM (active)
AC50 [16]: 2.37 µM (active)
AC50 (Cytochrome P450 2C9): 4.47 µM (inconclusive)
EC50 [17]: 14.9 µM (active)
AC50 (Cytochrome P450 1A2): 14.1 µM (inconclusive)
CC50 (Vero [18]): 9.47 µM (active)
AC50 [19]: 57 µM (active)
IC50 (Vero [20]): > 25 µM (active)
EC50 [21]: 6.76 µM (active)
EC50 (Beta-galactosidase): > 40 µM (inactive)
EC50 [22]: 1.14 µM (active)

COC(=O)C1=COC(OC2OC(CO)C(O)C(O)C2O)C2C1C=CC2(O)CO (configuration not stated)
IC50 [6]: 3.19 µM (active)

O=C1C2CCCN2C(c2cccs2)N1c1ccc(Cl)cc1 (configuration not stated)
EC50 [7]: 45.2 µM (active)
EC50 [17]: 17 µM (active)
IC50 (Vero [20]): 17.1 µM (active)
EC50 [21]: 49.9 µM (active)

COc1ccccc1CNS(=O)(=O)c1ccc(-c2cnc(C3CC3)o2)cc1
IC50 [2]: > 80 µM (inactive)

O=C(NNC(=O)c1ccc(NC(=O)c2ccccc2)cc1)Nc1ccccc1
IC50 [6]: 7.38 µM (active)

Cc1cc(C)nc(SCc2cc(=O)c(OC(=O)c3ccco3)co2)n1
IC50 [23]: 12.3 µM (active)

COc1ccccc1CNS(=O)(=O)c1ccc(-c2cc(C)no2)cc1
EC50 (BJ [1]): 53.8 µM (inconclusive)
IC50 [2]: 79.8 µM (inactive)
EC50 (BJ [3]): 1.92 µM (active)
EC50 [4]: 1.34 µM (active)
EC50 (BJ [5]): 0.83 µM (active)

Cn1c(S)nnc1CCNC(=O)c1ccccc1Cl
AC50 (Cytochrome P450 3A4): inconclusive

Cc1ccc(-c2c[nH]c(C(O)c3cc(Cl)cc(Cl)c3)n2)cc1 (configuration not stated)
IC50 [24]: 74.7 µM (inactive)
IC50 [25]: 6.3 µM (active)
IC50 [26]: 15.3 µM (inactive)

COc1ccccc1-c1cc(NC(C)=O)c2ncc(-c3cccc(C(F)(F)F)c3)n2c1
EC50 (Melanocortin receptor 4): > 89.2 µM (inactive)

COc1ccc(-c2cc(NC(C)=O)c3ncc(-c4ccc(F)cc4)n3c2)cc1OC
EC50 (Melanocortin receptor 4): > 89.2 µM (inactive)

Cc1ccc(S(=O)(=O)OCC(=O)Nc2ccc(C(=O)O)c(O)c2)cc1
AC50 [27]: 4.19 µM (active)
IC50 [6]: 4.64 µM (active)

COC(=O)c1cc2c(cn1)[nH]c1ccccc12 [BETA-CCM]
AC50 (Cytochrome P450 3A4): inconclusive

COc1cc2nc(N3CCN(C(=O)c4ccco4)CC3)nc(N)c2cc1OC [PRAZOSIN]
AC50 (Cytochrome P450 3A4): inconclusive

From ChEMBL document CHEMBL1201862, “PubChem BioAssay data set” (2004)
